Results: ChEMBL document CHEMBL5724914, “Linking interpersonal differences in gut microbiota composition and drug biotransformation activity” (2024)

What was measured:
[1] = human gut metagenome, 24 h, 2 µM
[2] = (§1) The drug is tested on WLS-077 corresponding to human gut metagenome with ENA study accession number: PRJEB37062 and ENA sample accession number: ERS12561750 for biotransformation under anaerobic condition. The drug concentrations were measured over 9 timepoints collected between 0 and 24 hours of incubation by liquid-chromatography-coupled mass spectrometry (LC–MS); conditions: 2 µM
[3] = human gut metagenome, 24 h, 2 µM; remark: listed apart in the source
[4] = as §1, with “WLS-220” for “WLS-077”, “ERS12561769” for “ERS12561750”; conditions: 2 µM
[5] = as §1, with “Z-020” for “WLS-077”, “rabbit” for “human”, “ERS12561819” for “ERS12561750”; conditions: 2 µM
[6] = human gut metagenome, 24 h, 2 µM; remark: listed apart in the source
[7] = human gut metagenome, 24 h, 2 µM; remark: listed apart in the source
[8] = human gut metagenome, 24 h, 2 µM; remark: listed apart in the source
[9] = human gut metagenome, 24 h, 2 µM; remark: listed apart in the source
[10] = human gut metagenome, 24 h, 2 µM; remark: listed apart in the source
[11] = as §1, with “Z-030” for “WLS-077”, “mouse” for “human”, “ERS12561829” for “ERS12561750”; conditions: 2 µM
[12] = as §1, with “WLS-310” for “WLS-077”, “ERS12561785” for “ERS12561750”; conditions: 2 µM
[13] = human gut metagenome, 24 h, 2 µM; remark: listed apart in the source
[14] = human gut metagenome, 24 h, 2 µM; remark: listed apart in the source
[15] = as §1, with “Z-008” for “WLS-077”, “to” for “to human gut”, “ERS12561808” for “ERS12561750”; conditions: 2 µM
[16] = as §1, with “WLS-007” for “WLS-077”, “ERS12561742” for “ERS12561750”; conditions: 2 µM
[17] = as §1, with “Z-026” for “WLS-077”, “to” for “to human gut”, “ERS12561825” for “ERS12561750”; conditions: 2 µM
[18] = human gut metagenome, 24 h, 2 µM; remark: listed apart in the source
[19] = human gut metagenome, 24 h, 2 µM; remark: listed apart in the source
[20] = as §1, with “Z-003” for “WLS-077”, “pig” for “human”, “ERS12561803” for “ERS12561750”; conditions: 2 µM
Also: call rule not given here.

Row | Structure (SMILES) | Bacterial Biotransformation [1] | Bacterial Biotransformation [2] | Bacterial Biotransformation [3] | Bacterial Biotransformation [4] | Bacterial Biotransformation [5] | Bacterial Biotransformation [6] | Bacterial Biotransformation [7] | Bacterial Biotransformation [8] | Bacterial Biotransformation [9] | Bacterial Biotransformation [10] | Bacterial Biotransformation [11] | Bacterial Biotransformation [12] | Bacterial Biotransformation [13] | Bacterial Biotransformation [14] | Bacterial Biotransformation [15] | Bacterial Biotransformation [16] | Bacterial Biotransformation [17] | Bacterial Biotransformation [18] | Bacterial Biotransformation [19] | Bacterial Biotransformation [20]
1 | CN(C)C(=O)Oc1cccc([N+](C)(C)C)c1.[Br-] [NEOSTIGMINE BROMIDE] | Compound NOT metabolized | Compound NOT metabolized | Compound NOT metabolized | Compound NOT metabolized | Compound NOT metabolized | Compound NOT metabolized | Compound NOT metabolized | Compound NOT metabolized | Compound NOT metabolized | Compound NOT metabolized | Compound NOT metabolized | Compound NOT metabolized | Compound NOT metabolized | Compound NOT metabolized | Compound NOT metabolized | Compound NOT metabolized | Compound NOT metabolized | Compound NOT metabolized | Compound NOT metabolized | Compound metabolized
2 | CC(=O)CCCCn1c(=O)c2c(ncn2C)n(C)c1=O [PENTOXIFYLLINE] | Compound metabolized | Compound NOT metabolized | Compound NOT metabolized | Compound NOT metabolized | Compound NOT metabolized | Compound NOT metabolized | Compound metabolized | Compound metabolized | Compound metabolized | Compound NOT metabolized | Compound NOT metabolized | Compound NOT metabolized | Compound NOT metabolized | Compound NOT metabolized | Compound NOT metabolized | Compound NOT metabolized | Compound NOT metabolized | Compound NOT metabolized | Compound NOT metabolized | Compound NOT metabolized
3 | CCCN1C[C@H](CSC)C[C@@H]2c3cccc4[nH]cc(c34)C[C@H]21.CS(=O)(=O)O [PERGOLIDE MESYLATE] | Compound NOT metabolized | Compound NOT metabolized | Compound NOT metabolized | Compound NOT metabolized | Compound NOT metabolized | Compound NOT metabolized | Compound NOT metabolized | Compound NOT metabolized | Compound NOT metabolized | Compound NOT metabolized | Compound NOT metabolized | Compound NOT metabolized | Compound NOT metabolized | Compound NOT metabolized | Compound NOT metabolized | Compound NOT metabolized | Compound NOT metabolized | Compound NOT metabolized | Compound NOT metabolized | Compound NOT metabolized
4 | CC(C)(C)N.CCC[C@H](N[C@@H](C)C(=O)N1[C@H](C(=O)O)C[C@@H]2CCCC[C@@H]21)C(=O)OCC [PERINDOPRIL ERBUMINE] | Compound metabolized | Compound NOT metabolized | Compound metabolized | Compound metabolized | Compound metabolized | Compound metabolized | Compound metabolized | Compound metabolized | Compound metabolized | Compound metabolized | Compound NOT metabolized | Compound metabolized | Compound metabolized | Compound metabolized | Compound NOT metabolized | Compound metabolized | Compound NOT metabolized | Compound metabolized | Compound metabolized | Compound metabolized
5 | C=C[C@H]1CN2CC[C@H]1C[C@H]2[C@H](O)c1ccnc2ccc(OC)cc12.C=C[C@H]1CN2CC[C@H]1C[C@H]2[C@H](O)c1ccnc2ccc(OC)cc12.O.O.O=S(=O)(O)O [QUININE SULFATE] | Compound metabolized | Compound NOT metabolized | Compound metabolized | Compound metabolized | Compound NOT metabolized | Compound NOT metabolized | Compound metabolized | Compound metabolized | Compound metabolized | Compound NOT metabolized | Compound NOT metabolized | Compound metabolized | Compound NOT metabolized | Compound metabolized | Compound NOT metabolized | Compound NOT metabolized | Compound NOT metabolized | Compound metabolized | Compound NOT metabolized | Compound NOT metabolized

More lines, now with the values ahead:

Row | Bacterial Biotransformation [1] | Bacterial Biotransformation [2] | Bacterial Biotransformation [3] | Bacterial Biotransformation [4] | Bacterial Biotransformation [5] | Bacterial Biotransformation [6] | Bacterial Biotransformation [7] | Bacterial Biotransformation [8] | Bacterial Biotransformation [9] | Bacterial Biotransformation [10] | Bacterial Biotransformation [11] | Bacterial Biotransformation [12] | Bacterial Biotransformation [13] | Bacterial Biotransformation [14] | Bacterial Biotransformation [15] | Bacterial Biotransformation [16] | Bacterial Biotransformation [17] | Bacterial Biotransformation [18] | Bacterial Biotransformation [19] | Bacterial Biotransformation [20] | Structure (SMILES)
6 | Compound metabolized | Compound metabolized | Compound NOT metabolized | Compound NOT metabolized | Compound NOT metabolized | Compound metabolized | Compound metabolized | Compound metabolized | Compound metabolized | Compound NOT metabolized | Compound NOT metabolized | Compound metabolized | Compound NOT metabolized | Compound NOT metabolized | Compound NOT metabolized | Compound NOT metabolized | Compound NOT metabolized | Compound NOT metabolized | Compound metabolized | Compound metabolized | CC(C)(C)NCC(O)COc1cccc2c1CC(O)C(O)C2 (stereo not given) [NADOLOL]
7 | Compound metabolized | Compound metabolized | Compound metabolized | Compound metabolized | Compound metabolized | Compound metabolized | Compound metabolized | Compound metabolized | Compound metabolized | Compound metabolized | Compound NOT metabolized | Compound metabolized | Compound metabolized | Compound metabolized | Compound NOT metabolized | Compound metabolized | Compound NOT metabolized | Compound metabolized | Compound metabolized | Compound metabolized | CC(C)[C@H]1CC[C@H](C(=O)N[C@H](Cc2ccccc2)C(=O)O)CC1 [NATEGLINIDE]
8 | Compound metabolized | Compound NOT metabolized | Compound NOT metabolized | Compound NOT metabolized | Compound metabolized | Compound NOT metabolized | Compound metabolized | Compound NOT metabolized | Compound NOT metabolized | Compound NOT metabolized | Compound NOT metabolized | Compound NOT metabolized | Compound NOT metabolized | Compound NOT metabolized | Compound NOT metabolized | Compound metabolized | Compound NOT metabolized | Compound NOT metabolized | Compound metabolized | Compound NOT metabolized | Cc1ccccc1C(OCCN(C)C)c1ccccc1.O=C(O)CC(O)(CC(=O)O)C(=O)O (stereo not given) [ORPHENADRINE CITRATE]
